Experimental data published in patent US12171732B2, “Compositions and use of N-chlorotaurine for treatment and prevention of respiratory infections” (priority 2021, dated 2024).
Read-outs that look alike come from different tables or passages of the source.

Assays:
[1] = test system: SARS-CoV-2 B.1.1.7 (Alpha); format: cell-based; conditions: 1% NCT, 37° C.
[2] = test system: SARS-CoV-2 B.1.351 (Beta); format: cell-based; conditions: 1% NCT, 37° C.
[3] = test system: SARS-CoV-2; format: in vivo, human; conditions: Example 3 patient, Day 5, first 1% NCT nasal spray, 2 puffs in each nostril

`O=S(=O)(O)CCNCl` [NCT, N-chlorotaurine] was tested. Which “reduction of infected cells” value ([1]; after 1 min) did it give?
Its value is 42-54%.

What about the “reduction of infected cells” value ([1]; after 5 min) of the same molecule?
Its value is 50-71%.

And the “reduction of infected cells” value ([1]; after 10 min)?
The value was 62-99%.

What about the “reduction of infected cells” value ([1]; after 20 min) of the same molecule?
The value was 99-100%.

What about the “reduction of infected cells” value ([1]; after 30 min) of the same molecule?
Its value is 100%.

What about the “reduction of infected cells” value ([2]; after 1 min (not significant, p=0.313)) of the same molecule?
Its value is 0-48%.

And the “reduction of infected cells” value ([2]; after 5 min)?
The value was 54-72%.

And the “reduction of infected cells” value ([2]; after 10 min)?
Its value is 82-97%.

And the “reduction of infected cells” value ([2]; after 20 min)?
The value was 99-100%.

What about the “reduction of infected cells” value ([2]; after 30 min) of the same molecule?
The value was 100%.

What about the “time until nasal passages cleared and nasal secretion dried up” value [3] of the same molecule?
Its value is ≤ 30 min.
